Measured values taken from patent US9999619B2, “Piperidin-4-yl azetidine derivatives as JAK1 inhibitors” (Incyte Corporation, priority 2010, dated 2018).

Key:
Assay type in all cases: biochemical
Jak2 (a.a. 828-1132) = Jak2 (a.a. 828-1132) (Homo sapiens (Human), UniProt O60674); assay: In vitro JAK kinase assay (HTRF, phosphorylation of a biotinylated peptide), JAK2; settings: measured at 1 mM ATP
Method in brief: (§1)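 N-terminal His-tagged catalytic domains, baculovirus-expressed in insect cells, phosphorylated a biotinylated peptide for 1 hr at room temperature. EDTA stop was followed by SA-APC and Eu-Py20 antibody for 40 minutes, with phosphopeptide read by HTRF.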

[1] = biological target: human JAK1 (a.a. 837-1142); assay: In vitro JAK kinase assay (HTRF, phosphorylation of a biotinylated peptide), JAK1; settings: ratio of JAK2 IC50 to JAK1 IC50, measured at 1 mM ATP
Method in brief: as §1

[2] = biological target: human JAK1 (a.a. 837-1142) (Homo sapiens, UniProt P23458); assay: as above; settings: measured at 1 mM ATP
Method in brief: as §1

Sequence of Jak2 (a.a. 828-1132) (O60674 828-1132): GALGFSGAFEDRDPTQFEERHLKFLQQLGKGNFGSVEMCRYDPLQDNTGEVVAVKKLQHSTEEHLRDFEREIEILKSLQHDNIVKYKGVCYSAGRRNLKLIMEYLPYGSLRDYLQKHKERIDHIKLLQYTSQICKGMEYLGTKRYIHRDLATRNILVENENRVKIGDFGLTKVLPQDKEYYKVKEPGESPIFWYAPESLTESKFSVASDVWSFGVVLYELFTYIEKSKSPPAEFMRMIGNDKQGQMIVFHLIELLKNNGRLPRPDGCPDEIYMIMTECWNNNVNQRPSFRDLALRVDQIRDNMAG

| IC50 (Jak2 (a.a. 828-1132)) [nM] | IC50 Ratio JAK2/JAK1 [1] | IC50 [2] [nM] | SMILES |
| --- | --- | --- | --- |
| ≤ 10 | 3.8 | ≤ 5 | N#CCC1(n2cc(-c3ncnc4[nH]ccc34)cn2)CN(C2CCN(C(=O)Nc3cccc(Cl)c3)CC2)C1 [Example 183, N-(3-chlorophenyl)-4-{3-(cyanomethyl)-3-[4-(7H-pyrrolo[2,3-d]pyrimidin-4-yl)-1H-pyrazol-1-yl]azetidin-1-yl}piperidine-1-carboxamide] |
| ≤ 10 | 3.9 | ≤ 5 | N#CCC1(n2cc(-c3ncnc4[nH]ccc34)cn2)CN(C2CCN(C(=O)Nc3ccc(Cl)cc3)CC2)C1 [Example 184, N-(4-chlorophenyl)-4-{3-(cyanomethyl)-3-[4-(7H-pyrrolo[2,3-d]pyrimidin-4-yl)-1H-pyrazol-1-yl]azetidin-1-yl}piperidine-1-carboxamide] |
| 10 to 50 | 5.5 | ≤ 5 | COc1ccc(OC)c(NC(=O)N2CCC(N3CC(CC#N)(n4cc(-c5ncnc6[nH]ccc56)cn4)C3)CC2)c1 [Example 186, 4-{3-(cyanomethyl)-3-[4-(7H-pyrrolo[2,3-d]pyrimidin-4-yl)-1H-pyrazol-1-yl]azetidin-1-yl}-N-(2,5-dimethoxyphenyl)piperidine-1-carboxamide] |
| 10 to 50 | 3.5 | 5 to 20 | Cc1ccc(NC(=O)N2CCC(N3CC(CC#N)(n4cc(-c5ncnc6[nH]ccc56)cn4)C3)CC2)c(C)n1 [Example 189, 4-{3-(cyanomethyl)-3-[4-(7H-pyrrolo[2,3-d]pyrimidin-4-yl)-1H-pyrazol-1-yl]azetidin-1-yl}-N-(2,6-dimethylpyridin-3-yl)piperidine-1-carboxamide] |
| 10 to 50 | 1.4 | 20 to 30 | Cc1csc(NC(=O)N2CCC(N3CC(CC#N)(n4cc(-c5ncnc6[nH]ccc56)cn4)C3)CC2)n1 [Example 191, 4-{3-(cyanomethyl)-3-[4-(7H-pyrrolo[2,3-d]pyrimidin-4-yl)-1H-pyrazol-1-yl]azetidin-1-yl}-N-(4-methyl-1,3-thiazol-2-yl)piperidine-1-carboxamide] |
| ≤ 10 | 2.2 | ≤ 5 | Cn1c(NC(=O)N2CCC(N3CC(CC#N)(n4cc(-c5ncnc6[nH]ccc56)cn4)C3)CC2)nc2ccccc21 [Example 194, 4-{3-(cyanomethyl)-3-[4-(7H-pyrrolo[2,3-d]pyrimidin-4-yl)-1H-pyrazol-1-yl]azetidin-1-yl}-N-(1-methyl-1H-benzimidazol-2-yl)piperidine-1-carboxamide] |
| 50 to 100 | 9.9 | 5 to 20 | CCn1nccc1NC(=O)N1CCC(N2CC(CC#N)(n3cc(-c4ncnc5[nH]ccc45)cn3)C2)CC1 [Example 196, 4-{3-(cyanomethyl)-3-[4-(7H-pyrrolo[2,3-d]pyrimidin-4-yl)-1H-pyrazol-1-yl]azetidin-1-yl}-N-(1-ethyl-1H-pyrazol-5-yl)piperidine-1-carboxamide] |
| 10 to 50 | 3.2 | 5 to 20 | Cc1cc(NC(=O)N2CCC(N3CC(CC#N)(n4cc(-c5ncnc6[nH]ccc56)cn4)C3)CC2)n(C)n1 [Example 197, 4-{3-(cyanomethyl)-3-[4-(7H-pyrrolo[2,3-d]pyrimidin-4-yl)-1H-pyrazol-1-yl]azetidin-1-yl}-N-(1,3-dimethyl-1H-pyrazol-5-yl)piperidine-1-carboxamide] |
| 10 to 50 | 3.6 | 5 to 20 | N#CCC1(n2cc(-c3ncnc4[nH]ccc34)cn2)CN(C2CCN(C(=O)Nc3ncccc3C(F)(F)F)CC2)C1 [Example 201, 4-{3-(cyanomethyl)-3-[4-(7H-pyrrolo[2,3-d]pyrimidin-4-yl)-1H-pyrazol-1-yl]azetidin-1-yl}-N-[3-(trifluoromethyl)pyridin-2-yl]piperidine-1-carboxamide] |
| 10 to 50 | 6.4 | ≤ 5 | N#CCC1(n2cc(-c3ncnc4[nH]ccc34)cn2)CN(C2CCN(C(=O)Nc3ncccc3F)CC2)C1 [Example 202, 4-{3-(cyanomethyl)-3-[4-(7H-pyrrolo[2,3-d]pyrimidin-4-yl)-1H-pyrazol-1-yl]azetidin-1-yl}-N-(3-fluoropyridin-2-yl)piperidine-1-carboxamide] |
| 50 to 100 | 8.6 | 5 to 20 | N#CCC1(n2cc(-c3ncnc4[nH]ccc34)cn2)CN(C2CCN(C(=O)Nc3ncc(F)cc3F)CC2)C1 [Example 203, 4-{3-(cyanomethyl)-3-[4-(7H-pyrrolo[2,3-d]pyrimidin-4-yl)-1H-pyrazol-1-yl]azetidin-1-yl}-N-(3,5-difluoropyridin-2-yl)piperidine-1-carboxamide] |
| ≤ 10 | 1.6 | ≤ 5 | COC(=O)c1ccccc1NC(=O)N1CCC(N2CC(CC#N)(n3cc(-c4ncnc5[nH]ccc45)cn3)C2)CC1 [Example 206, methyl 2-{[(4-{3-(cyanomethyl)-3-[4-(7H-pyrrolo[2,3-d]pyrimidin-4-yl)-1H-pyrazol-1-yl]azetidin-1-yl}piperidin-1-yl)carbonyl]amino}benzoate] |

The remaining lines, values behind:

| SMILES | IC50 (Jak2 (a.a. 828-1132)) [nM] | IC50 Ratio JAK2/JAK1 [1] | IC50 [2] [nM] |
| --- | --- | --- | --- |
| N#CCC1(n2cc(-c3ncnc4[nH]ccc34)cn2)CN(C2CCN(C(=O)Nc3ccc(OC(F)(F)F)cc3)CC2)C1 [Example 182, 4-{3-(cyanomethyl)-3-[4-(7H-pyrrolo[2,3-d]pyrimidin-4-yl)-1H-pyrazol-1-yl]azetidin-1-yl}-N-[4-(trifluoromethoxy)phenyl]piperidine-1-carboxamide] | 10 to 50 | 3.7 | 5 to 20 |
| Cc1ccccc1NC(=O)N1CCC(N2CC(CC#N)(n3cc(-c4ncnc5[nH]ccc45)cn3)C2)CC1 [Example 185, 4-{3-(cyanomethyl)-3-[4-(7H-pyrrolo[2,3-d]pyrimidin-4-yl)-1H-pyrazol-1-yl]azetidin-1-yl}-N-(2-methylphenyl)piperidine-1-carboxamide] | 10 to 50 | 9.5 | ≤ 5 |
| N#CCC1(n2cc(-c3ncnc4[nH]ccc34)cn2)CN(C2CCN(C(=O)Nc3nccs3)CC2)C1 [Example 190, 4-{3-(cyanomethyl)-3-[4-(7H-pyrrolo[2,3-d]pyrimidin-4-yl)-1H-pyrazol-1-yl]azetidin-1-yl}-N-1,3-thiazol-2-ylpiperidine-1-carboxamide] | 50 to 100 | 2.1 | 20 to 30 |
| Cc1nc(NC(=O)N2CCC(N3CC(CC#N)(n4cc(-c5ncnc6[nH]ccc56)cn4)C3)CC2)sc1C [Example 192, 4-{3-(cyanomethyl)-3-[4-(7H-pyrrolo[2,3-d]pyrimidin-4-yl)-1H-pyrazol-1-yl]azetidin-1-yl}-N-(4,5-dimethyl-1,3-thiazol-2-yl)piperidine-1-carboxamide] | 10 to 50 | 3.0 | 5 to 20 |
| N#CCC1(n2cc(-c3ncnc4[nH]ccc34)cn2)CN(C2CCN(C(=O)Nc3nc4ccccc4s3)CC2)C1 [Example 193, N-1,3-benzothiazol-2-yl-4-{3-(cyanomethyl)-3-[4-(7H-pyrrolo[2,3-d]pyrimidin-4-yl)-1H-pyrazol-1-yl]azetidin-1-yl}piperidine-1-carboxamide] | ≤ 10 | 0.5 | ≤ 5 |
| N#CCC1(n2cc(-c3ncnc4[nH]ccc34)cn2)CN(C2CCN(C(=O)Nc3nc(-c4ccc(Cl)cc4)cs3)CC2)C1 [Example 195, N-[4-(4-chlorophenyl)-1,3-thiazol-2-yl]-4-{3-(cyanomethyl)-3-[4-(7H-pyrrolo[2,3-d]pyrimidin-4-yl)-1H-pyrazol-1-yl]azetidin-1-yl}piperidine-1-carboxamide] | 50 to 100 | 3.2 | 20 to 30 |
| Cc1ncccc1NC(=O)N1CCC(N2CC(CC#N)(n3cc(-c4ncnc5[nH]ccc45)cn3)C2)CC1 [Example 198, 4-{3-(cyanomethyl)-3-[4-(7H-pyrrolo[2,3-d]pyrimidin-4-yl)-1H-pyrazol-1-yl]azetidin-1-yl}-N-(2-methylpyridin-3-yl)piperidine-1-carboxamide] | 10 to 50 | 4.4 | ≤ 5 |
| Cc1nc(F)ccc1NC(=O)N1CCC(N2CC(CC#N)(n3cc(-c4ncnc5[nH]ccc45)cn3)C2)CC1 [Example 199, 4-{3-(cyanomethyl)-3-[4-(7H-pyrrolo[2,3-d]pyrimidin-4-yl)-1H-pyrazol-1-yl]azetidin-1-yl}-N-(6-fluoro-2-methylpyridin-3-yl)piperidine-1-carboxamide] | 10 to 50 | 10.0 | ≤ 5 |
| Cc1ccc(NC(=O)N2CCC(N3CC(CC#N)(n4cc(-c5ncnc6[nH]ccc56)cn4)C3)CC2)c(F)n1 [Example 200, 4-{3-(cyanomethyl)-3-[4-(7H-pyrrolo[2,3-d]pyrimidin-4-yl)-1H-pyrazol-1-yl]azetidin-1-yl}-N-(2-fluoro-6-methylpyridin-3-yl)piperidine-1-carboxamide] | 10 to 50 | 6.7 | ≤ 5 |
| COc1ncccc1NC(=O)N1CCC(N2CC(CC#N)(n3cc(-c4ncnc5[nH]ccc45)cn3)C2)CC1 [Example 204, 4-{3-(cyanomethyl)-3-[4-(7H-pyrrolo[2,3-d]pyrimidin-4-yl)-1H-pyrazol-1-yl]azetidin-1-yl}-N-(2-methoxypyridin-3-yl)piperidine-1-carboxamide] | 10 to 50 | 4.0 | ≤ 5 |
| Cc1nc(C(F)(F)F)ccc1NC(=O)N1CCC(N2CC(CC#N)(n3cc(-c4ncnc5[nH]ccc45)cn3)C2)CC1 [Example 205, 4-{3-(cyanomethyl)-3-[4-(7H-pyrrolo[2,3-d]pyrimidin-4-yl)-1H-pyrazol-1-yl]azetidin-1-yl}-N-[2-methyl-6-(trifluoromethyl)pyridin-3-yl]piperidine-1-carboxamide] | 10 to 50 | 4.4 | 5 to 20 |
